Values quoted from earlier work, collected in US20120070472A1, “CHRONOTHERAPEUTIC COMPOSITIONS AND METHODS OF THEIR USE” (Circ Pharma Research & Development Limited, priority 2004, published 2012).
Where two headings read alike, the source gives them in different places.

Row | SMILES | Elimination Half-Life (in vivo) | Elimination Half-Life (i/v) | Elimination Half-Life (po)
1 | CC(C)N(CCC(C(N)=O)(c1ccccc1)c1ccccn1)C(C)C (stereo not drawn) [Disopyramide] | 6.0 h |  | 
2 | COC(=O)C1=C(C)NC(C)=C(C(=O)OC(C)C)C1c1cccc2nonc12 (stereo not drawn) [Isradipine] | 3.8 h |  | 
3 | NS(=O)(=O)c1cc2c(cc1Cl)NCNS2(=O)=O [Hydrochlorothiazide] | 2.5 h |  | 
4 | NNc1nncc2ccccc12 [Hydralazine] | 1.0 h |  | 
5 | C=CCc1ccccc1OCC(O)CNC(C)C (stereo not drawn) [Alprenolol] | 2.5 h |  | 
6 | C=CCOc1ccccc1OCC(O)CNC(C)C (stereo not drawn) [Oxprenolol] | 2.5 h |  | 
7 | CC(CCc1ccccc1)NCC(O)c1ccc(O)c(C(N)=O)c1 (stereo not drawn) [Labetalol] | 4.9 h |  | 
8 | CCCC(=O)Nc1ccc(OCC(O)CNC(C)C)c(C(C)=O)c1 (stereo not drawn) [Acebutolol] | 2.7 h |  | 
9 | COc1ccccc1OCCNCC(O)COc1cccc2[nH]c3ccccc3c12 (stereo not drawn) [Carvedilol] |  | 2.4 h | 6.4 h
10 | CC(C)NCC(O)COc1cccc2[nH]ccc12 (stereo not drawn) [Pindolol] | 3.6 h |  | 
11 | COc1ccc([C@@H]2Sc3ccccc3N(CCN(C)C)C(=O)[C@@H]2OC(C)=O)cc1 [Diltiazem] | 3.7 h |  | 
12 | NS(=O)(=O)c1cc2c(cc1Cl)N=CNS2(=O)=O [Chlorothiazide] | 1.5 h |  | 
13 | CC(C)(C)NC[C@H](O)COc1nsnc1N1CCOCC1 [Timolol] | 4.1 h |  | 
14 | CC(=O)S[C@@H]1CC2=CC(=O)CC[C@]2(C)[C@H]2CC[C@@]3(C)[C@@H](CC[C@@]34CCC(=O)O4)[C@H]12 [Spironolactone] | 1.6 h |  | 
15 | CC(C)NCC(O)COc1cccc2ccccc12 (stereo not drawn) [Propranolol] | 3.9 h |  | 
16 | O=C(NCCO[N+](=O)[O-])c1cccnc1 [Nicorandil] | 1.1 h |  | 
17 | CCN(CC)CCNC(=O)c1ccc(NC(C)=O)cc1 [n-Acetylprocainamide] | 6.0 h |  | 
